{"source": "patent US7655598B2", "about": "“Herbicide composition” (Sumitomo Chemical Company, Limited, priority 2001, dated 2010)", "system": "sickle pod", "assay": "Test Example 1: foliar spray herbicide effect on sickle pod in greenhouse pots", "type": "in vivo, sickle pod (Cassia obtusifolia)", "settings": "evaluated 5 days after treatment, scale 0-10", "protocol": "Evaluation of phytotoxicity against a crop was shown by “no” when almost no phytotoxicity was observed, “low” when a low level phytotoxicity was observed, “medium” when a medium level phytotoxicity was observed and “high” when a high level phytotoxicity was observed.\nA plastic pot of 11 cm in diameter and 8 cm in depth was filled with field soil. A seed of sickle pod was sown and grown in a greenhouse for 28 days.\nAn emulsion of Compound A-1 was prepared by sufficiently mixing 5 parts of Compound A-1, 6 parts of Sorpol 3005X (surfactant, produced by Toho Chemical) and 89 parts of xylene.\nEach of • single use of an emulsion of Compound A-1, • single use of an emulsion of Oxyfluorfen (commercial name: Goal, produced by Rohm & Hass Co., containing 23% of Oxyfluorfen), and • a mixed composition of an emulsion of Compound A-1 and an emulsion of Oxyfluorfen, • were diluted with water containing 1% Agri-dex (produced by Helena). Respective dilutions were uniformly sprayed from upper side onto foliages of sickle pod grown as described above with a small sprayer such that the amounts of the active ingredients were the amounts shown in Table 4.\nAfter the treatment, they were raised in a greenhouse for 5 days and the effect against weeds was evaluated.", "data": [{"smiles": "CCOc1cc(Oc2ccc(C(F)(F)F)cc2Cl)ccc1[N+](=O)[O-]", "note": "[Oxyfluorfen, 2-chloro-1-(3-ethoxy-4-nitrophenoxy)-4-(trifluoromethyl)benzen]", "values": [{"measurement": "Herbicide Effect sickle pod", "setting": "500 g/ha active ingredient", "result": 3}, {"measurement": "Herbicide Effect sickle pod", "setting": "2000 g/ha active ingredient", "result": 3}]}]}
